Measurements: US12552846B2, “Modified BCL9 mimetic peptides” (Sapience Therapeutics, Inc., priority 2019, dated 2026)
Square brackets hold non-standard residues; d marks the D form. Peptide text beside a SMILES is read from it. * marks the point of attachment. d2Nal = N[C@H](Cc1ccc2ccccc2c1)C(=O)O; Octanoyl = CCCCCCCC(=O)*

Tested on: HL60 promyelocytic leukemia cells
Assay: Cytotoxicity assay in HL60 cells (Annexin V FITC / PI flow cytometry)
Type: cell-based
Conditions: 48 hours; for EC50: 0-80 μM, % Viability (Annexin V low, PI low)
Method: We examined the cytotoxicity of peptides BCL-26 and BCL-27 using an assay in HL60 promyelocytic leukemia cells. HL60 PML suspension cells were set at a density of 3.5×10^3 cells/well in 150 μL of RPMI+1.5% fetal bovine serum (FBS) in a 96 well dish. BCL-26 or BCL-27, reconstituted at a concentration of 10 mg/mL in 20 mM His, pH 7.5, was added to each well at a volume of 50 μL to a final concentration range of 0-80 μM. Cells were incubated with peptide for 48 hours at 37° C. Cell viability was quantified by flow cytometry using abcam Annexin V FITC apoptosis detection kit. Briefly, cells were washed with PBS and resuspended in 1× assay buffer containing Annexin V FITC and propidium iodide (PI). Annexin V detects apoptotic cells, and PI stains dead cells. After staining, apoptotic cells show green fluorescence, dead cells show red and green fluorescence, and live cells show little or no fluorescence. Cells were selected for analysis based on forward scatter (FSC) vs. side scatter (SSC), and analyzed by BD Accuri C6 Plus flow cytometer to detect Annexin V-FITC binding (Ex=488 nm; Em=530 nm) using FITC signal detector and PI staining by the phycoerythrnn emission signal detector. Percentage of Annexin V^low and PI^low were quantified and presented as % Viability.
We examined the cytotoxicity of additional retro inverso and mixed chirality BCL9 mimetic peptides in HL60 cells using the assay described above.

SMILES | EC50 [nM] | cytotoxic activity
CC(C)C[C@@H](NC(=O)[C@@H](Cc1c[nH]c2ccccc12)NC(=O)[C@@H](N)Cc1ccccc1)C(=O)N[C@H](C)C(=O)N[C@H](CCCNC(=N)N)C(=O)N[C@H](CCC(N)=O)C(=O)N[C@H](CC(C)C)C(=O)N[C@H](C)C(=O)N[C@H](CCCNC(=N)N)C(=O)N[C@H](CC(C)C)C(=O)N[C@H](C)C(=O)N[C@H](CCC(N)=O)C(=O)N[C@H](CC(C)C)C(=O)N[C@H](C)C(=O)N[C@H](CCCCN)C(=O)N[C@H](CC(C)C)C(=O)N[C@@H](C(=O)N1CCC[C@@H]1C(=O)N[C@@H](C(=O)O)C(C)C)[C@H](C)O [BCL-99] (H-F[dW][dL][dA][dR][dQ][dL][dA][dR][dL][dA][dQ][dL][dA][dK][dL][dT][dP][dV]-OH; N-terminus and C-terminus assumed) | 2000 to 10000 | 
CCCCCCCC(=O)N[C@H](Cc1c[nH]c2ccccc12)C(=O)N[C@H](Cc1c[nH]c2ccccc12)C(=O)N[C@H](CC(C)C)C(=O)N[C@@H](C(=O)N[C@H](CCCNC(=N)N)C(=O)N[C@H](CCC(N)=O)C(=O)N[C@H](CC(C)C)C(=O)N[C@H](C)C(=O)N[C@H](CCCNC(=N)N)C(=O)N[C@H](CC(C)C)C(=O)N[C@H](C)C(=O)N[C@H](CCC(N)=O)C(=O)N[C@H](CC(C)C)C(=O)N[C@H](C)C(=O)N[C@H](CCCCN)C(=O)N[C@H](CC(C)C)C(=O)N[C@@H](C(=O)N1CCC[C@@H]1C(=O)N[C@@H](C(=O)O)C(C)C)[C@H](C)O)C(C)C [BCL-91b] (Octanoyl-[dW][dW][dL][dV][dR][dQ][dL][dA][dR][dL][dA][dQ][dL][dA][dK][dL][dT][dP][dV]-OH; C-terminus assumed) | < 2000 | 
CC(C)C[C@@H](NC(=O)[C@@H](Cc1c[nH]c2ccccc12)NC(=O)[C@@H](N)CCCNC(=N)N)C(=O)N[C@H](C)C(=O)N[C@H](CCCNC(=N)N)C(=O)N[C@H](CCC(N)=O)C(=O)N[C@H](CC(C)C)C(=O)N[C@H](C)C(=O)N[C@H](CCCNC(=N)N)C(=O)N[C@H](CC(C)C)C(=O)N[C@H](C)C(=O)N[C@H](CCC(N)=O)C(=O)N[C@H](CC(C)C)C(=O)N[C@H](C)C(=O)N[C@H](CCCCN)C(=O)N[C@H](CC(C)C)C(=O)N[C@@H](C(=O)N1CCC[C@@H]1C(=O)N[C@@H](C(=O)O)C(C)C)[C@H](C)O [BCL-100] (H-R[dW][dL][dA][dR][dQ][dL][dA][dR][dL][dA][dQ][dL][dA][dK][dL][dT][dP][dV]-OH; N-terminus and C-terminus assumed) | < 2000 | 
CC(C)C[C@@H](NC(=O)[C@@H](Cc1c[nH]c2ccccc12)NC(=O)[C@@H](N)Cc1c[nH]c2ccccc12)C(=O)N[C@H](C)C(=O)N[C@H](CCCNC(=N)N)C(=O)N[C@H](CCC(N)=O)C(=O)N[C@H](CC(C)C)C(=O)N[C@H](C)C(=O)N[C@H](CCCNC(=N)N)C(=O)N[C@H](CC(C)C)C(=O)N[C@H](CCCNC(=N)N)C(=O)N[C@H](CCC(N)=O)C(=O)N[C@H](CC(C)C)C(=O)N[C@H](C)C(=O)N[C@H](CCCCN)C(=O)N[C@H](CC(C)C)C(=O)N[C@@H](C(=O)N1CCC[C@@H]1C(=O)N[C@@H](C(=O)O)C(C)C)[C@H](C)O [BCL-96] (H-W[dW][dL][dA][dR][dQ][dL][dA][dR][dL][dR][dQ][dL][dA][dK][dL][dT][dP][dV]-OH; N-terminus and C-terminus assumed) | < 2000 | 
CC(C)C[C@@H](NC(=O)[C@@H](Cc1c[nH]c2ccccc12)NC(=O)[C@H](N)Cc1ccc2ccccc2c1)C(=O)N[C@H](C)C(=O)N[C@H](CCCNC(=N)N)C(=O)N[C@H](CCC(N)=O)C(=O)N[C@H](CC(C)C)C(=O)N[C@H](C)C(=O)N[C@H](CCCNC(=N)N)C(=O)N[C@H](CC(C)C)C(=O)N[C@H](C)C(=O)N[C@H](CCC(N)=O)C(=O)N[C@H](CC(C)C)C(=O)N[C@H](C)C(=O)N[C@H](CCCCN)C(=O)N[C@H](CC(C)C)C(=O)N[C@@H](C(=O)N1CCC[C@@H]1C(=O)N[C@@H](C(=O)O)C(C)C)[C@H](C)O [BCL-78] (H-[d2Nal][dW][dL][dA][dR][dQ][dL][dA][dR][dL][dA][dQ][dL][dA][dK][dL][dT][dP][dV]-OH; N-terminus and C-terminus assumed) | < 2000 | 
CC(C)C[C@@H](NC(=O)[C@@H](Cc1c[nH]c2ccccc12)NC(=O)[C@H](N)Cc1c[nH]c2ccccc12)C(=O)N[C@H](C)C(=O)N[C@H](CCCNC(=N)N)C(=O)N[C@H](CCC(N)=O)C(=O)N[C@H](CC(C)C)C(=O)N[C@H](CCC(=O)O)C(=O)N[C@H](CCCNC(=N)N)C(=O)N[C@H](CC(C)C)C(=O)N[C@H](C)C(=O)N[C@H](CCC(N)=O)C(=O)N[C@H](CC(C)C)C(=O)N[C@H](C)C(=O)N[C@H](CCCCN)C(=O)N[C@H](CC(C)C)C(=O)N[C@@H](C(=O)N1CCC[C@@H]1C(=O)N[C@@H](C(=O)O)C(C)C)[C@H](C)O [BCL-76] (H-[dW][dW][dL][dA][dR][dQ][dL][dE][dR][dL][dA][dQ][dL][dA][dK][dL][dT][dP][dV]-OH; N-terminus and C-terminus assumed) | > 10000 | 
CC(C)C[C@@H](NC(=O)[C@@H](Cc1c[nH]c2ccccc12)NC(=O)[C@H](N)Cc1c[nH]c2ccccc12)C(=O)N[C@H](C)C(=O)N[C@H](CCCNC(=N)N)C(=O)N[C@H](CCC(N)=O)C(=O)N[C@H](CC(C)C)C(=O)N[C@H](C)C(=O)N[C@H](CCCNC(=N)N)C(=O)N[C@H](CC(C)C)C(=O)N[C@H](CCCCN)C(=O)N[C@H](CCC(N)=O)C(=O)N[C@H](CC(C)C)C(=O)N[C@H](C)C(=O)N[C@H](CCCCN)C(=O)N[C@H](CC(C)C)C(=O)N[C@@H](C(=O)N1CCC[C@@H]1C(=O)N[C@@H](C(=O)O)C(C)C)[C@H](C)O [BCL-89] (H-[dW][dW][dL][dA][dR][dQ][dL][dA][dR][dL][dK][dQ][dL][dA][dK][dL][dT][dP][dV]-OH; N-terminus and C-terminus assumed) | 2000 to 10000 | 
CC(C)C[C@@H](NC(=O)[C@@H](Cc1c[nH]c2ccccc12)NC(=O)[C@H](CCCNC(=N)N)NC(=O)[C@H](N)Cc1ccccc1)C(=O)N[C@H](C)C(=O)N[C@H](CCCNC(=N)N)C(=O)N[C@H](CCC(N)=O)C(=O)N[C@H](CC(C)C)C(=O)N[C@H](C)C(=O)N[C@H](CCCNC(=N)N)C(=O)N[C@H](CC(C)C)C(=O)N[C@H](C)C(=O)N[C@H](CCC(N)=O)C(=O)N[C@H](CC(C)C)C(=O)N[C@H](C)C(=O)N[C@H](CCCCN)C(=O)N[C@H](CC(C)C)C(=O)N[C@@H](C(=O)N1CCC[C@@H]1C(=O)N[C@@H](C(=O)O)C(C)C)[C@H](C)O [BCL-129] (H-[dF]R[dW][dL][dA][dR][dQ][dL][dA][dR][dL][dA][dQ][dL][dA][dK][dL][dT][dP][dV]-OH; N-terminus and C-terminus assumed) | < 2000 | 
CCCCCCCC(=O)N1CCC[C@@H]1C(=O)N[C@H](CO)C(=O)N[C@H](CC(=O)O)C(=O)NCC(=O)N[C@H](CCCNC(=N)N)C(=O)NCC(=O)N[C@H](Cc1c[nH]c2ccccc12)C(=O)N[C@H](Cc1c[nH]c2ccccc12)C(=O)N[C@H](CC(C)C)C(=O)N[C@H](C)C(=O)N[C@H](CCCNC(=N)N)C(=O)N[C@H](CCC(N)=O)C(=O)N[C@H](CC(C)C)C(=O)N[C@H](C)C(=O)N[C@H](CCCNC(=N)N)C(=O)N[C@H](CC(C)C)C(=O)N[C@H](C)C(=O)N[C@H](CCC(N)=O)C(=O)N[C@H](CC(C)C)C(=O)N[C@H](C)C(=O)N[C@H](CCCCN)C(=O)N[C@H](CC(C)C)C(=O)N[C@@H](C(=O)N1CCC[C@@H]1C(=O)N[C@@H](C(=O)O)C(C)C)[C@H](C)O [BCL-135] (Octanoyl-[dP][dS][dD]G[dR]G[dW][dW][dL][dA][dR][dQ][dL][dA][dR][dL][dA][dQ][dL][dA][dK][dL][dT][dP][dV]-OH; C-terminus assumed) | 2000 to 10000 | 
CC(C)C[C@@H](NC(=O)[C@@H](C)NC(=O)[C@@H](C)NC(=O)[C@@H](CC(C)C)NC(=O)[C@@H](CCCNC(=N)N)NC(=O)[C@@H](C)NC(=O)[C@@H](CC(C)C)NC(=O)[C@@H](CCC(N)=O)NC(=O)[C@@H](CCCNC(=N)N)NC(=O)[C@@H](C)NC(=O)[C@@H](CC(C)C)NC(=O)[C@@H](Cc1c[nH]c2ccccc12)NC(=O)[C@H](Cc1c[nH]c2ccccc12)NC(=O)[C@H](N)Cc1ccccc1)C(=O)N[C@H](C)C(=O)N[C@H](CCCCN)C(=O)N[C@H](CC(C)C)C(=O)N[C@@H](C(=O)N1CCC[C@@H]1C(=O)N[C@@H](C(=O)O)C(C)C)[C@H](C)O [BCL-132] (H-[dF]W[dW][dL][dA][dR][dQ][dL][dA][dR][dL][dA][dA][dL][dA][dK][dL][dT][dP][dV]-OH; N-terminus and C-terminus assumed) | < 2000 | 
CC(C)C[C@@H](NC(=O)[C@@H](CCC(N)=O)NC(=O)[C@@H](C)NC(=O)[C@@H](CC(C)C)NC(=O)[C@@H](CCCNC(=N)N)NC(=O)[C@@H](C)NC(=O)[C@@H](CC(C)C)NC(=O)[C@@H](CCC(N)=O)NC(=O)[C@@H](CCCNC(=N)N)NC(=O)[C@@H](C)NC(=O)[C@@H](CC(C)C)NC(=O)[C@@H](Cc1c[nH]c2ccccc12)NC(=O)[C@H](N)Cc1c[nH]c2ccccc12)C(=O)N[C@H](C)C(=O)O [BCL-12] (H-[dW][dW][dL][dA][dR][dQ][dL][dA][dR][dL][dA][dQ][dL][dA]-OH; N-terminus and C-terminus assumed) | > 80000 | no cytotoxic activity
